Assay results taken from US8563706B2, “Efficient cell culture system for hepatitis C virus genotype 1A and 1B” (priority 2007, dated 2013).

What was measured:
[1] = system: JFH1-based recombinants of genotypes 1a, 1b, 2a, 2b, and 6a; type: cell-based, hepatitis C virus
[2] = system: JFH1 cultures or cultures with genotype 1a (H77), 1b (Con1) or 2a (J6) JFH1-based recombinants; conditions: previous studies; cited from earlier work
[3] = system: J6/JFH; conditions: previous studies; cited from earlier work

Row | Molecule | effect of treatment on infected cells and supernatant HCV RNA titers (in words) [1] | production of infectious virus (in words) [2] | decrease in supernatant HCV RNA titers [1] [log] | decrease in the number of infected cells [1] [%] | replication of J6/JFH (in words) [3]
1 | NC(=O)c1ncn([C@@H]2O[C@H](CO)[C@@H](O)[C@H]2O)n1 [ribavirin] | no apparent effect | did not decrease production of infectious virus | – | – | –
2 | interferon-α2b | – | – | ~2 | > 60 | decreased replication
3 | NC12CC3CC(CC(C3)C1)C2 [amantadine] | no apparent effect | did not decrease production of infectious virus | – | – | –
